pIC50: −log10 of the molar value. Where two headings read alike, the source gives them in different places.
Molecular target: PRC2 complex (EZH2 Y641F/EED/SUZ12/RbAp48/AEBP2) (Homo sapiens (Human), UniProt Q15910, Y641F)
Test: Activity of a compound to PRC2 complex (EZH2 Y641F), HTRF
[1] = read-out: IC50 (EZH2_Y641F), EZH2 Y641F PRC2 complex, HTRF, class symbols

PRC2 complex (EZH2 Y641F/EED/SUZ12/RbAp48/AEBP2), sequence (Q15910 whole entry Y641F): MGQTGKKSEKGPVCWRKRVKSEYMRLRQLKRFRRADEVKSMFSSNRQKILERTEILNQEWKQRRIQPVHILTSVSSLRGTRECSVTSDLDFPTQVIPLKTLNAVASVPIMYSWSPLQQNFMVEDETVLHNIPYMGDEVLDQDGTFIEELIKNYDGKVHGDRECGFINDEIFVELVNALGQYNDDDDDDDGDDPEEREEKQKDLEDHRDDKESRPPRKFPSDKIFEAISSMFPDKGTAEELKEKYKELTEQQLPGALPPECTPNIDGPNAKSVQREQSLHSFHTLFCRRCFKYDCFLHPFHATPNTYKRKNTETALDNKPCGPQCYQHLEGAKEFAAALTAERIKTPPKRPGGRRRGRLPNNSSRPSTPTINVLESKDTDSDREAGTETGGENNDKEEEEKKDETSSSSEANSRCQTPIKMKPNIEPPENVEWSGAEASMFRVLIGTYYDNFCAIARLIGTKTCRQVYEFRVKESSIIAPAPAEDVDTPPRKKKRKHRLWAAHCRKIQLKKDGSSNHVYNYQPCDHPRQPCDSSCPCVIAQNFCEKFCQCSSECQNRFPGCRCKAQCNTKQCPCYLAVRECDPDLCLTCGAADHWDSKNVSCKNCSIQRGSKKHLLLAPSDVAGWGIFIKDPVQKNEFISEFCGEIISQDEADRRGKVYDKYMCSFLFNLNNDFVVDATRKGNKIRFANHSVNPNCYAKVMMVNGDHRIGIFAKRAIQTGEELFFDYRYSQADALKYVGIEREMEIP
PRC2 complex (EZH2 Y641F/EED/SUZ12/RbAp48/AEBP2), sequence (O75530 whole entry partner): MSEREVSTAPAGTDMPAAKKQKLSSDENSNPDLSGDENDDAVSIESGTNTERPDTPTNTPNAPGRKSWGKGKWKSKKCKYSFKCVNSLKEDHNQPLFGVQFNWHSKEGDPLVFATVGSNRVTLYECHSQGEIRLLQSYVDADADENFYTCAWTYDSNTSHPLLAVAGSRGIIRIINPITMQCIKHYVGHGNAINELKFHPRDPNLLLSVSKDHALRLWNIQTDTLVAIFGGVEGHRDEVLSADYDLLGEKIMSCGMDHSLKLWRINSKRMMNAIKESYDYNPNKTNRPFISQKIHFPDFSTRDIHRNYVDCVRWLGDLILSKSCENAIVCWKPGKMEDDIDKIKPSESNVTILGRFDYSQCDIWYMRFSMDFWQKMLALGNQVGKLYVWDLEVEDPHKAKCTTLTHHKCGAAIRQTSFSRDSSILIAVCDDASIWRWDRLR
PRC2 complex (EZH2 Y641F/EED/SUZ12/RbAp48/AEBP2), sequence (Q15022 whole entry partner): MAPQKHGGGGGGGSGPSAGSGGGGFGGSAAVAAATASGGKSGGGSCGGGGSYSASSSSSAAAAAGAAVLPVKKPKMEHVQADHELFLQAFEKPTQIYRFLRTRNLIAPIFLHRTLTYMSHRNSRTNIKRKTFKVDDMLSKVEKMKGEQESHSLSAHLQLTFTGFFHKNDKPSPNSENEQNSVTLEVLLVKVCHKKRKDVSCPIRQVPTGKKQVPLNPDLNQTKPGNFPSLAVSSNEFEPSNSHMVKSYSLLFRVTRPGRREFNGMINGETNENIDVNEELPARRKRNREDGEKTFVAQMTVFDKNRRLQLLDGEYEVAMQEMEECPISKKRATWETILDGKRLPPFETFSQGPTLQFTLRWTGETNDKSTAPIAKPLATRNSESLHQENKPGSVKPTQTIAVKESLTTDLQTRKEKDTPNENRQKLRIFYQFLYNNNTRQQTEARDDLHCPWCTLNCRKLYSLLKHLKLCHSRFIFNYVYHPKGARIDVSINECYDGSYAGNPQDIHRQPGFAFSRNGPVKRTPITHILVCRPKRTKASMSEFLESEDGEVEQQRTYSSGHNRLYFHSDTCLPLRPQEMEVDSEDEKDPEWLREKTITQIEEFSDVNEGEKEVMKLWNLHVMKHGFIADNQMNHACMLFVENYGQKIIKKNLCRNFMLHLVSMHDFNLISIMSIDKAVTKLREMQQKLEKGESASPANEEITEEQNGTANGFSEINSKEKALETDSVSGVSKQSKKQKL
PRC2 complex (EZH2 Y641F/EED/SUZ12/RbAp48/AEBP2), sequence (Q09028 whole entry partner): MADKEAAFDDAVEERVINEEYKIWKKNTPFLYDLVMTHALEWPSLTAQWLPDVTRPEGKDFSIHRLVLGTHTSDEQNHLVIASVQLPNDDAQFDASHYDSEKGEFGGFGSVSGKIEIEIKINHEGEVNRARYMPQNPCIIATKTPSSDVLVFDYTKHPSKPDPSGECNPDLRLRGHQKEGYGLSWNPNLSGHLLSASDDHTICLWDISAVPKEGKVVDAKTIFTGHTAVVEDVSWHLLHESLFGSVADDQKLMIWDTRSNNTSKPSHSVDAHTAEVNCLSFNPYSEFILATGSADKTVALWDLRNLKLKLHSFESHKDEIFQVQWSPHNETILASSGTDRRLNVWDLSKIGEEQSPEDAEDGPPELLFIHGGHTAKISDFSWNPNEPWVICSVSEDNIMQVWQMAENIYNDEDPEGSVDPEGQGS
PRC2 complex (EZH2 Y641F/EED/SUZ12/RbAp48/AEBP2), sequence (Q6ZN18 whole entry partner): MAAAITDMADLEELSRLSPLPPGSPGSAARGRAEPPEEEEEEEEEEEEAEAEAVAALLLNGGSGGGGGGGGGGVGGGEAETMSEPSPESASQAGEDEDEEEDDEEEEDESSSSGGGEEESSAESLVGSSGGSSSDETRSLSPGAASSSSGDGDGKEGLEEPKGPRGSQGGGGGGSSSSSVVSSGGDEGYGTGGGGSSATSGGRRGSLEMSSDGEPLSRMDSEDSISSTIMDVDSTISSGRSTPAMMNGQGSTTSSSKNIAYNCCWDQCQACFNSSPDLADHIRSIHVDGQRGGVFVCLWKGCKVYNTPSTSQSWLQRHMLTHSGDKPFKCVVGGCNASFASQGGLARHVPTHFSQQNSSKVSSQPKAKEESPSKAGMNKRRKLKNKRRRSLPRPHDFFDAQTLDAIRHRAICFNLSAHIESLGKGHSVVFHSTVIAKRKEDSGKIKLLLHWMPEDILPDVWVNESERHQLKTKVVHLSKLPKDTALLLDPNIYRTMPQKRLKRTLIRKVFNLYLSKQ

SMILES	pIC50 [1]	pIC50
Cc1cc(C)c(CNC(=O)c2cc3cccn3c(C(C)OCc3ccccn3)c2C)c(=O)[nH]1 (centres unmarked) [Example 15, N-((4,6-dimethyl-2-oxo-1,2-dihydropyridin-3-yl)methyl)-6-methyl-5-(1-(pyridine-2-ylmethoxy)ethyl)indolizine-7-carboxamide]	6.00 to 7.00	
COc1cc(C)[nH]c(=O)c1CNC(=O)c1cc2c(-c3ccccc3)ccn2c(C(C)N2CCOCC2)c1C (centres unmarked) [Example 131, N-((4-methoxy-6-methyl-2-oxo-1,2-dihydropyridin-3-yl)methyl)-6-methyl-5-(1-morpholinylethyl)-1-phenylindolizine-7-carboxamide]	> 7.00	
Cc1cc(C)c(CNC(=O)c2cc3cc(-c4cn(C)cn4)cn3c(C(C)N3CCOCC3)c2C)c(=O)[nH]1 (centres unmarked) [Example 51, N-((4,6-dimethyl-2-oxo-1,2-dihydropyridin-3-yl)methyl)-6-methyl-5-(1-morphinolinylethyl)-2-(pyridin-2-yl)indolizine-7-carboxamide]	> 7.00	
Cc1cc(C)c(CNC(=O)c2cc3cc(-c4ccc(N)nc4)cn3c(C(C)N3CCOCC3)c2C)c(=O)[nH]1 (centres unmarked) [Example 89, 2-(6-aminopyridin-3-yl)-N-((4,6-dimethyl-2-oxo-1,2-dihydropyridin-3-yl)methyl)-6-methyl-5-(1-morpholinylethyl)indolizine-7-amide]	> 7.00	
CCc1cc(-c2ccn3c(C(C)N4CCN(CC(F)(F)F)CC4)c(C)c(C(=O)NCc4c(OC)cc(C)[nH]c4=O)cc23)ccn1 (centres unmarked) [Compound 205, 1-(2-ethylpyridin-4-yl)-N-((4-methoxy-6-methyl-2-oxo-1,2-dihydropyridin-3-yl)methyl)-6-methyl-5-(1-(4-(2,2,2-trifluoroethyl)piperazin-1-yl)ethyl)indolizine-7-carboxamide]		> 7.00
Cc1[nH]c(=O)c(CNC(=O)c2cc3c(-c4ccc(N)nc4)ccn3c(C(C)N3CCN(CC(F)(F)F)CC3)c2C)c2c1CN(CC(C)C)CC2 (centres unmarked) [Compound 188, 1-(6-aminopyridin-3-yl)-N-((7-isobutyl-1-methyl-3-oxo-2,3,5,6,7,8-hexahydro-2,7-naphthyridin-4-yl)methyl)-6-methyl-5-(1-(4-(2,2,2-trifluoroethyl)piperazin-1-yl)ethyl)indolizine-7-carboxamide]		6.00 to 7.00
CCN(c1c(C)c(C(=O)NCc2c(C)cc(C)[nH]c2=O)cc2cc(Br)cn12)C1CNC1 [Example 59]	5.00 to 6.00	
COc1cc(C)[nH]c(=O)c1CNC(=O)c1cc2c(-c3ccnc(C(C)C)c3)ccn2c(C(C)N2CCN(CC(F)(F)F)CC2)c1C (centres unmarked) [Compound 206, 1-(2-isopropylpyridin-4-yl)-N-((4-methoxy-6-methyl-2-oxo-1,2-dihydropyridin-3-yl)methyl)-6-methyl-5-(1-(4-(2,2,2-trifluoroethyl)piperazin-1-yl)ethyl)indolizine-7-carboxamide]	> 7.00	
Cc1cc(C)c(CNC(=O)c2cc3cc(-c4ccc(N5CCN(C)CC5)nc4)cn3c(C(C)N3CCOCC3)c2C)c(=O)[nH]1 (centres unmarked) [Example 91]	> 7.00	
COc1ccc(-c2cc3cc(C(=O)NCc4c(C)cc(C)[nH]c4=O)c(C)c(C(C)N4CCOCC4)n3c2)c(OC)c1 (centres unmarked) [Example 38, 2-(2,4-dimethoxyphenyl)-N-((4,6-dimethyl-2-oxo-1,2-dihydropyridin-3-yl)methyl)-6-methyl-5-(1-morphinolinylethyl)indolizine-7-carboxamide]	> 7.00	
Cc1cc(C)c(CNC(=O)c2cc3cc(-c4ccc5c(c4)OCO5)cn3c(C(C)N3CCOCC3)c2C)c(=O)[nH]1 (centres unmarked) [Example 31, 2-(benzo[d][1,3]dioxol-5-yl)-N-((4,6-dimethyl-2-oxo-1,2-dihydropyridine-3-yl)methyl)-6-methyl-5-(1-morphinolinylethyl)indolizin-7-carboxamide]	6.00 to 7.00	
CCN(c1c(C)c(C(=O)NCc2c(OC)cc(C)[nH]c2=O)cc2c(-c3ccnc(N(C)C)c3)ncn12)C1CCN(CC(F)(F)F)CC1 [Compound 204, 1-(2-(dimethylamino)pyridin-4-yl)-5-(ethyl(1-(2,2,2-trifluoroethyl)piperidin-4-yl)amino)-N-((4-methoxy-6-methyl-2-oxo-1,2-dihydropyridin-3-yl)methyl)-6-methylimidazo[1,5-a]pyridine-7-carboxamide]	> 7.00	
COC(=O)c1cc2cc(C(=O)NCc3c(C)cc(C)[nH]c3=O)c(C)c(C(C)N3CCOCC3)n2c1 (centres unmarked) [Example 125, methyl 7-(((4,6-dimethyl-2-oxo-1,2-dihydropyridin-3-yl)methyl)carbamoyl)-6-methyl-5-(1-morpholinylethyl)indolizine-2-carboxylate]	6.00 to 7.00	
Cc1cc(C)c(CNC(=O)c2cc3cc(Br)cn3c(C(C)N3CCN(CCC(F)(F)F)CC3)c2C)c(=O)[nH]1 (centres unmarked) [Example 104]	6.00 to 7.00	
CCN(c1c(C)c(C(=O)NCc2c(C)cc(C)[nH]c2=O)cc2cc(Br)cn12)C1CCOCC1 [Example 58, 2-bromo-N-((4,6-dimethyl-2-oxo-1,2-dihydropyridin-3-yl)methyl)-5-(ethyl(tetrahydro-2H-pyran-4-yl)amino)-6-methylindolizine-7-carboxamide]		6.00 to 7.00
Cc1cc(C)c(CNC(=O)c2cc3c(-c4ccc(N5CCOCC5)cc4)ccn3c(C(C)N3CCOCC3)c2C)c(=O)[nH]1 (centres unmarked) [Example 118, N-((4,6-dimethyl-2-oxo-1,2-dihydropyridin-3-yl)methyl)-1-(4-(dimethylamine)phenyl)-6-methyl-5-(1-morpholinylethyl)indolizine-7-carboxamide]	> 7.00	
Cc1cc(C)c(CNC(=O)c2cc3cc(-c4cc5c(s4)CCNC5)cn3c(C(C)N3CCOCC3)c2C)c(=O)[nH]1 (centres unmarked) [Example 115, N-((4,6-dimethyl-2-oxo-1,2-dihydropyridin-3-yl)methyl)-6-methyl-5-(1-morpholinoethyl)-2-(4,5,6,7-tetrahydrothieno[3,2-c]pyridin-2-yl)indolizine-7-carboxamide]		> 7.00
Cc1cc(C)c(CNC(=O)c2cc3cc(-c4cncs4)cn3c(C(C)N3CCC(N(C)C)CC3)c2C)c(=O)[nH]1 (centres unmarked) [Example 138]	> 7.00	

The remaining lines, values ahead:

pIC50 [1]	pIC50	SMILES
> 7.00		COc1cc(C)[nH]c(=O)c1CNC(=O)c1cc2cc(-c3ccnn3C)cn2c(C(C)N2CCN(CC(F)(F)F)CC2)c1C (centres unmarked) [Example 83, N-((4-methoxy-6-methyl-2-oxo-1,2-dihydropyridin-3-yl)methyl)-6-methyl-2-(1-methyl-1H-pyrazol-5-yl)-5-(1-(4-(2,2,2-trifluoroethyl)piperazin-1-yl)ethyl)indolizine-7-carboxamide]
	6.00 to 7.00	Cc1cc(C)c(CNC(=O)c2cc3cc(Br)cn3c(C(C)N3CCN(S(C)(=O)=O)CC3)c2C)c(=O)[nH]1 (centres unmarked) [Example 103, 2-bromo-N-((4,6-dimethyl-2-oxo-1,2-dihydropyridin-3-yl)methyl)-6-methyl-5-(1-(4-(methylsulfonyl)piperazin-1-yl)ethyl)indolizine-7-carboxamide]
5.00 to 6.00		Cc1cc(C)c(CNC(=O)c2cc3cc(Br)cn3c(C(C)N3CCN(C(=O)CO)CC3)c2C)c(=O)[nH]1 (centres unmarked) [Example 102]
	6.00 to 7.00	Cc1cc(C)c(CNC(=O)c2cc3cc(Br)cn3c(C(C)N3CCNCC3)c2C)c(=O)[nH]1 (centres unmarked) [Example 100]
> 7.00		COc1cc(C)[nH]c(=O)c1CNC(=O)c1cc2c(-c3ccc(C)nc3C)ccn2c(C(C)N2CCN(CC(F)(F)F)CC2)c1C (centres unmarked) [Compound 176]
< 5.00		COC(c1ccc(Br)cc1)c1c(C)c(C(=O)NCc2c(C)cc(C)[nH]c2=O)cc2cccn12 (centres unmarked) [Example 24, 5-((4-bromophenyl)(methoxy)methyl)-N-((4,6-dimethyl-2-oxo-1,2-dihydropyridin-3-yl)methyl)-6-methylindolizine-7-carboxamide]
> 7.00		Cc1cc(C)c(CNC(=O)c2cc3c(-c4ccccc4)ccn3c(C(C)N3CCOCC3)c2C)c(=O)[nH]1 (centres unmarked) [Example 82, N-((4,6-dimethyl-2-oxo-1,2-dihydropyridin-3-yl)methyl)-6-methyl-5-(1-morphinolinylethyl)-1-phenylindolizine-7-carboxamide]
> 7.00		COc1cc(C)[nH]c(=O)c1CNC(=O)c1cc2cc(-c3cncn3C)cn2c(C(C)N2CCC(N(C)C)CC2)c1C (centres unmarked) [Example 135, 5-(1-(4-(dimethylamino)piperidin-1-yl)ethyl)-N-((4-methoxy-6-methyl-2-oxo-1,2-dihydropyridin-3-yl)methyl)-6-methyl-2-(1-methyl-1H-imidazol-5-yl)indolizine-7-carboxamide]
> 7.00		COc1cc(C)[nH]c(=O)c1CNC(=O)c1cc2cc(-c3nccn3C)cn2c(C(C)N2CCC(N(C)C)CC2)c1C (centres unmarked) [Example 108]
6.00 to 7.00		COc1cc(C)[nH]c(=O)c1CNC(=O)c1cc2c(-c3ccnc(Cl)c3)ccn2c([C@H](C)N2CCN(CC(F)(F)F)CC2)c1C (single isomer, unassigned) [Compound 168, (S)-1-(2-chloropyridin-4-yl)-N-((4-methoxy-6-methyl-2-oxo-1,2-dihydropyridine-3-yl)methyl)-6-methyl-5-(1-(4-(2,2,2-trifluoroethyl)piperazin-1-yl)ethyl)indolizine-7-carboxamide or (R) 1-(2-chloropyridin-4-yl)-N-((4-methoxy-6-methyl-2-oxo-1,2-dihydropyridine-3-yl)methyl)-6-methyl-5-(1-(4-(2,2,2-trifluoroethyl)piperazin-1-yl)ethyl)indolizine-7-carboxamide]
6.00 to 7.00		Cc1cc(C)c(CNC(=O)c2cc3cccn3c(C(C)OC3CCCCC3)c2C)c(=O)[nH]1 (centres unmarked) [Example 8, 5-(1-(cyclohexyloxy)ethyl)-N-((4,6-dimethyl-2-oxo-1,2-dihydropyridin-3-yl)methyl)-6-methylindolizine-7-carboxamide]

From patent publication US10968215B2 (SHANGHAI HAIHE PHARMACEUTICAL CO., LTD., priority 2016, dated 2021)
